Source: ChEMBL document CHEMBL1201862, “PubChem BioAssay data set” (2004)
One block for each molecule: values may come before it. Activity calls are given as the source filed them.

Experiments:
[1] = target: Luciferin 4-monooxygenase (Photinus pyralis, UniProt P08659); test: firefly luciferase enzyme inhibitors, dose response, biochemical, luminescence (AID 1891)
[2] = Luminescence Cell-Based Dose Confirmation HTS to Identify Inhibitors of Platelet Dense Granule Release. [Related pubchem assays: 1663 (Primary HTS), 1678 (Summary of Project)]; format: functional
Cytochrome P450 3A4 = Cytochrome P450 3A4 (Homo sapiens, UniProt P08684); conditions: Potency;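 also: confirmatory qHTS run detecting inhibitors and substrates of CYP3A4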
Sequence of Cytochrome P450 3A4 (P08684 whole entry): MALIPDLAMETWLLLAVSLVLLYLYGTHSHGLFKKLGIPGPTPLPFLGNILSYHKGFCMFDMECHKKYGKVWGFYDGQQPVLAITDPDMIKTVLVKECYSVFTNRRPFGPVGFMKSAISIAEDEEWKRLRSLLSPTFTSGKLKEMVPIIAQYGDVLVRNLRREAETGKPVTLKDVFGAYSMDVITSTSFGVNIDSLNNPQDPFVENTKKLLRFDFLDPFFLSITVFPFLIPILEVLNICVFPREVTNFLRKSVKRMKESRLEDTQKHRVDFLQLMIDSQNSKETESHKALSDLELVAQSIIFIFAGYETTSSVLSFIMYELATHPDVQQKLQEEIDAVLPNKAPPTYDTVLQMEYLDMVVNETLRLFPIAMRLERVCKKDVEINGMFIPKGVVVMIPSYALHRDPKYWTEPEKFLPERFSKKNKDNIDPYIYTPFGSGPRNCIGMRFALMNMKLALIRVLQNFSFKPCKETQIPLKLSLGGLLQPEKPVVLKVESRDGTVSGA

[3] = intracellular Trypanosoma cruzi inhibitors in host cells – cell-based, plate reader, cherry-pick samples, set 3, dose response (AID 651818); format: functional;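 also: compounds incubated with infected cells for about four days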
Paired box protein Pax-8 = Paired box protein Pax-8 (Homo sapiens, UniProt Q06710); test: inhibitors of PAX8-driven TPO luciferase reporter, dose response, RMG-I cells, cherry-pick (AID 687027); format: functional, cell-based;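 also: luciferase reporter driven by Pax8 target thyroperoxidase promoter measured by SteadyGlo luminescence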
Sequence of Paired box protein Pax-8 (Q06710 whole entry): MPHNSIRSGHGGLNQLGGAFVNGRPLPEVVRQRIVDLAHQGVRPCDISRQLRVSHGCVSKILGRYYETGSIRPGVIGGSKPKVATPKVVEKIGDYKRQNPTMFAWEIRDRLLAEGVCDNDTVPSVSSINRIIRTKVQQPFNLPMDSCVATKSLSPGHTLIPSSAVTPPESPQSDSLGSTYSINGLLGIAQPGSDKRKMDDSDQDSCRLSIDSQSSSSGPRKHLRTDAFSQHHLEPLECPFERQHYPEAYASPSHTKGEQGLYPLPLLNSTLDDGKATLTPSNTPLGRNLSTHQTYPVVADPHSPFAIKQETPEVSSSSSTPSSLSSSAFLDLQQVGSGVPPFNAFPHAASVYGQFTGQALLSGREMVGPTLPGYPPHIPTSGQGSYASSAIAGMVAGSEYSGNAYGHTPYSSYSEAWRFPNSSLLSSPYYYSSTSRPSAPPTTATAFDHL

[4] = NIH:OVCAR-3 ovarian cancer cell cytotoxicity, dose response, PAX8 inhibitor project, plate reader, dry powder samples (AID 743044); format: functional, cell-based
[5] = cytotoxicity in OVCAR8 ovarian cancer cells, dose response, PAX8 project, cell-based, plate reader, dry powder samples (AID 743197); format: functional; conditions: OVCAR-8
[6] = HepG2 cell cytotoxicity, dose response, cytotoxicity control, plate reader, cherry-pick, antagonist series (AID 743416); format: functional, cell-based
[7] = P. falciparum Dd2 growth inhibitors, dose response, SYBR Green, cherry-picked samples (AID 1159567); format: functional, cell-based

Sequence of Luciferin 4-monooxygenase (P08659 whole entry): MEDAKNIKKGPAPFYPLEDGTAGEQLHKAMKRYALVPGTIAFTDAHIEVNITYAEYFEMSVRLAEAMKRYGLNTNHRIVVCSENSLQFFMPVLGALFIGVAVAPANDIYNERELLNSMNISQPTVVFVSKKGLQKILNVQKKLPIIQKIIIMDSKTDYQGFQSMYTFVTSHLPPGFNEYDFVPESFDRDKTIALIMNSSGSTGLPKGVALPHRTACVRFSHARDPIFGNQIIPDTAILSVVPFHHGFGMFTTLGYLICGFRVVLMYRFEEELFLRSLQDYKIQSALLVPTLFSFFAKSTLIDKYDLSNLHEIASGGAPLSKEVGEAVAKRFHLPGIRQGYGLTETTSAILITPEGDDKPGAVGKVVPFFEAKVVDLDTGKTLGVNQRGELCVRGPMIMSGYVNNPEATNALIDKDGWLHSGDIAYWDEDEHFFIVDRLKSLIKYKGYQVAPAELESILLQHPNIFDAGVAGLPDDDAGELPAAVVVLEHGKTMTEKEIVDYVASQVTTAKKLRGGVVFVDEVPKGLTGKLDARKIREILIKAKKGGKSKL

SMILES: CN1CCN(S(=O)(=O)c2cccc([N+](=O)[O-])c2)CC1
EC50 [1]: > 112 µM (not active)
EC50 [2]: > 112 µM (not active)

SMILES: O=C(c1ccncc1)N1CCN(C(=O)c2cccc3ccccc23)CC1
EC50 [1]: > 112 µM (not active)
EC50 [2]: 16.6 µM (active)

SMILES: CCC(Oc1cc(Cl)ccc1Cl)C(=O)NNC(=O)CCC(=O)O (centres undefined)
EC50 [1]: > 112 µM (not active)
EC50 [2]: > 112 µM (not active)

SMILES: COc1cccc(CNC(=O)c2cc(S(=O)(=O)N3CCCC3)cn2C)c1
EC50 [1]: > 112 µM (not active)
EC50 [2]: > 112 µM (not active)

AC50 (Cytochrome P450 3A4): 20 µM (inconclusive)
SMILES: COC(=O)[C@@H]1C[C@@]2(O)[C@H](O)[C@H](O)[C@H](O)C[C@H]2N1CC(c1ccccc1)c1ccccc1

AC50 (Cytochrome P450 3A4): 12.6 µM (inconclusive)
SMILES: COC(=O)c1cccc(C23CC4(C2)[C@H](CN(Cc2ccc(C(F)(F)F)cc2)[C@@H]4c2ccccc2)C3c2ccc(C(F)(F)F)cc2)c1 (some centres undefined)

SMILES: COC(=O)c1ccc(=O)n(-c2ccc(OC)cc2)c1
EC50 [1]: > 112 µM (not active)
EC50 [2]: > 112 µM (not active)

SMILES: COc1cc(CN2CCNC(=O)C2CC(=O)NCCCN2CCOCC2)cc(OC)c1 (centres undefined)
EC50 [1]: > 112 µM (not active)
EC50 [2]: > 112 µM (not active)

AC50 (Cytochrome P450 3A4): 20 µM (inconclusive)
SMILES: COC(=O)[C@@H]1C[C@H]2CC[C@H](O)C[C@H]2N1Cc1ccc(N2CCOCC2)cc1

SMILES: CCN(CC(=O)Nc1ccccc1C(F)(F)F)C(=O)CCc1c(C)nc(O)c(C#N)c1C
EC50 [1]: > 112 µM (not active)
EC50 [2]: 2.71 µM (active)

SMILES: Cc1c(N)cccc1N
AC50 (Cytochrome P450 3A4): 15.8 µM (inconclusive)

SMILES: Cc1nc2sc(C(c3ccccc3)N3CCN(c4ccccc4F)CC3)c(O)n2n1 (centres undefined)
EC50 [1]: > 112 µM (not active)
EC50 [2]: > 112 µM (not active)

SMILES: C[C@@H]1CCCCO[C@H](CN(C)C(=O)Nc2ccc3c(c2)OCO3)[C@@H](C)CN([C@H](C)CO)C(=O)c2cc(NC(=O)Nc3ccc(C(F)(F)F)cc3)ccc2O1
AC50 [3]: 2.56 µM (active)

SMILES: C[C@@H]1CN([C@H](C)CO)C(=O)c2cc(NC(=O)Nc3cccc4ccccc34)ccc2O[C@@H]1CN(C)C(=O)Nc1cccc2ccccc12
AC50 (Paired box protein Pax-8): 6.15 µM (active)
AC50 [4]: 49.7 µM (active)
AC50 [5]: 46.1 µM (active)

SMILES: COCC#Cc1ccc2c(c1)O[C@H](CN(C)S(=O)(=O)c1cccc(F)c1)[C@@H](C)CN([C@H](C)CO)S2(=O)=O
AC50 [6]: > 52 µM (inactive)

SMILES: CCC(=O)N1CC2(C1)CN(C(=O)Nc1ccccc1F)[C@H](CO)c1[nH]c3cc(OC)ccc3c12
AC50 [7]: 15.9 µM (active)

SMILES: COc1ccccc1S(=O)(=O)N(C)C[C@@H]1Oc2cc(C#CCC(C)C)ccc2S(=O)(=O)N([C@@H](C)CO)C[C@@H]1C
AC50 [7]: 3.17 µM (active)

SMILES: COc1ccc(NC(=O)N(C)C[C@@H]2Oc3cc(-c4ccc(C)cc4)ccc3S(=O)(=O)N([C@H](C)CO)C[C@H]2C)cc1
AC50 [7]: 3.38 µM (active)

AC50 (Cytochrome P450 3A4): 39.8 µM (inconclusive)
SMILES: Cc1cc(O)c(C=O)c2c1C(=O)Oc1c(C)c(O)c3c(c1O2)C(O)OC3=O (centres undefined) [NORSTICTIC ACID]
